pIC50: −log10 of the molar value. Where two headings read alike, the source gives them in different places.
Tests used:
[1] = test system: A549 (lung cancer) cell line; experiment: SRB in-vitro cytotoxicity assay, A549; conditions: Homo sapiens
Procedure: (§1) All the ring annulated analogues of cannabinoid were evaluated for their cytotoxicity against number of human cancer cell lines. To evaluate the in-vitro cytotoxicity, a sulphorhodamine B (SRB) assay was carried out. SRB is a negatively charged pink aminoxanthine dye that binds to the basic amino acid of cells in mildly acidic conditions and is removed in basic conditions. […] When cells reached 60-70% confluency, trypsinized and seeded in 96 well plates according to their inoculation density and incubated for 24 hours to attain their proper morphology. Next-day cells were again incubated for 48 hours with test compounds or paclitaxel (positive control). Next, cells were fixed with 50% of ice-cold TCA for 1 hours, washed with distilled water, and kept for air drying. Air-dried plates were then stained with 0.4% SRB dye for 30 minutes and subsequently with water and 1% v/v glacial acetic acid were then kept for air drying. […] The viability of cells is measured based on bound dye after fixation, which is measured by absorbance at 540 nm.

[2] = test system: U251 (glioblastoma) cell line; experiment: SRB in-vitro cytotoxicity assay, U251; conditions: Homo sapiens
Procedure: as §1

[3] = test system: Mia-PaCa (pancreatic cancer) cell line; experiment: SRB in-vitro cytotoxicity assay, Mia-PaCa; conditions: Homo sapiens
Procedure: as §1

[4] = test system: HCT-116 (colorectal cancer) cell line; experiment: SRB in-vitro cytotoxicity assay, HCT-116; conditions: Homo sapiens
Procedure: as §1

[5] = test system: PC-3 (prostate cancer) cell line; experiment: SRB in-vitro cytotoxicity assay, PC-3; conditions: Homo sapiens
Procedure: as §1

[6] = test system: HEK-293 (normal cell lines); experiment: SRB in-vitro cytotoxicity assay, HEK-293; conditions: Homo sapiens, HEK293, read-out: inhibition against HEK-293 cell lines
Procedure: as §1

in vitro = conditions: human
Procedure: as §1

[7] = test system: MCF-7 (breast cancer) cell line; experiment: SRB in-vitro cytotoxicity assay, MCF-7; conditions: Homo sapiens
Procedure: as §1

[8] = A549, 48 h, read-out: Cytotoxicity (in vitro cell inhibition) A549
[9] = A549, read-out: inhibition against A549 cell lines
[10] = U-251, 48 h, read-out: Cytotoxicity (in vitro cell inhibition) U251
[11] = U-251, read-out: inhibition against U251 cell lines
[12] = MIA PaCa-2, 48 h, read-out: Cytotoxicity (in vitro cell inhibition) Mia-PaCa
[13] = MIA PaCa-2, read-out: inhibition against Mia-PaCa cell lines
[14] = HCT-116, 48 h, read-out: Cytotoxicity (in vitro cell inhibition) HCT-116
[15] = HCT-116, read-out: inhibition against HCT-116 cell lines
[16] = 48 h, read-out: Cytotoxicity (in vitro cell inhibition) PC3
[17] = PC-3, read-out: inhibition against PC3 cell lines
[18] = MCF7, 48 h, read-out: Cytotoxicity (in vitro cell inhibition) MCF-7
[19] = MCF7, read-out: inhibition against MCF-7 cell lines

| Compound | inhibition at 20 µM [1, 8] [%] | inhibition at 20 µM [1, 9] [%] | inhibition at 20 µM [2, 10] [%] | inhibition at 20 µM [2, 11] [%] | inhibition at 20 µM [3, 12] [%] | inhibition at 20 µM [3, 13] [%] | inhibition at 20 µM [4, 14] [%] | inhibition at 20 µM [4, 15] [%] | inhibition at 20 µM [5, 16] [%] | inhibition at 20 µM [5, 17] [%] | inhibition at 20 µM [6] [%] | inhibition at 20 µM (in vitro) [%] | inhibition at 20 µM [7, 18] [%] | inhibition at 20 µM [7, 19] [%] | inhibition at 48 h, 20 µM (in vitro) [%] | further results |
| --- | --- | --- | --- | --- | --- | --- | --- | --- | --- | --- | --- | --- | --- | --- | --- | --- |
| C=C(C)[C@@H]1CCC(C)=C[C@H]1c1c(O)cc(CCCCC)c2c1OCN(C1CCC1)C2 [Ih, (N-cyclobutyldihydrol-2H-oxazinyl)-cannabidiol] | 50 to 70 | > 50 | 50 to 70 | > 50 | > 70 | > 70 | 50 to 70 | > 50 | > 70 | > 70 | > 50 | 50 to 70 | > 70 | > 70 |  |  |
| C=C(C)[C@@H]1CCC(C)=C[C@H]1c1c(O)cc(CCCCC)c2c1OCN(C1CC1)C2 [Ig, (N-cyclopropyldihydrol-2H-oxazinyl)-cannabidiol] | 50 to 70 | > 50 | < 50 |  | < 50 |  | 50 to 70 | > 50 | 50 to 70 | > 50 |  | < 50 | 50 to 70 | > 50 |  |  |
| C=C(C)[C@@H]1CCC(C)=C[C@H]1c1c(O)cc(CCCCC)c2c1OCN(CCCN1CCOCC1)C2 [If, (N-morpholinopropyldihydrol-2H-oxazinyl)-cannabidiol] | > 70 | > 70 | > 70 | > 70 | > 70 | > 70 | 50 to 70 | > 50 | > 70 | > 70 | > 50 |  | > 70 | > 70 | 50 to 70 |  |
| CC(=O)O[C@H]1C(=O)[C@@]2(C)[C@H]([C@H](OC(=O)c3ccccc3)[C@]3(O)C[C@H](OC(=O)[C@H](O)[C@@H](NC(=O)c4ccccc4)c4ccccc4)C(C)=C1C3(C)C)[C@]1(OC(C)=O)CO[C@@H]1C[C@@H]2O [Paclitaxel, paclitaxel, reference compound] | > 70 | > 70 | > 70 | > 70 | > 70 | > 70 | > 70 | > 70 | > 70 | > 70 | > 70 |  | > 70 | > 70 | > 70 |  |
| C=C(C)[C@@H]1CCC(C)=C[C@H]1c1c(O)cc(CCCCC)c2c1OCN(CC)C2 [Ib, (N-ethyldihydrol-2H-oxazinyl)-cannabidiol] | > 70 | > 70 | 50 to 70 | > 50 | > 70 | > 70 | 50 to 70 | > 50 | > 70 | > 70 | > 50 | 50 to 70 | > 70 | > 70 |  |  |
| C=C(C)[C@@H]1CCC(C)=C[C@H]1c1c(O)cc(CCCCC)c2c1OCN(CCCC)C2 [Id, (N-butyldihydrol-2H-oxazinyl)-cannabidiol] | > 70 | > 70 | 50 to 70 | > 50 | > 70 | > 70 | > 70 | > 70 | > 70 | > 70 |  | < 50 | > 70 | > 70 |  | pIC50 ([1]; A549, read-out: IC50 against A549): 5.03; pIC50 ([2]; U-251, read-out: IC50 against U251): 4.76; pIC50 ([3]; MIA PaCa-2, read-out: IC50 against Mia-PaCa-2): 4.94; pIC50 ([4]; HCT-116, read-out: IC50 against HCT-116): 5.39; pIC50 ([5]; read-out: IC50 against PC-3): 5.38; pIC50 ([7]; MCF7, read-out: IC50 against MCF-7): 5.54 |
| C=C(C)[C@@H]1CCC(C)=C[C@H]1c1c(O)cc(CCCCC)c2c1OCN(C1CCCCCC1)C2 [Ii, (N-cycloheptyldihydrol-2H-oxazinyl)-cannabidiol] | > 70 | > 70 | < 50 |  | > 70 | > 70 | 50 to 70 | > 50 | 50 to 70 | > 50 |  |  | > 70 | > 70 | < 50 |  |
| C=C(C)[C@@H]1CCC(C)=C[C@H]1c1c(O)cc(CCCCC)c2c1OCN(C)C2 [Ia, (N-methyldihydrol-2H-oxazinyl)-cannabidiol] | > 70 | > 70 | > 70 | > 70 | > 70 | > 70 | 50 to 70 | > 50 | > 70 | > 70 | > 70 | > 70 | > 70 | > 70 |  |  |

From patent publication US20260216216A1, “(N-ALKYLDIHYDROL-2H-OXAZINYL)-CANNABIDIOL AS ANTI-PROLIFERATIVE AGENT AND PROCESS FOR PREPARATION THEREOF” (COUNCIL OF SCIENTIFIC AND INDUSTRIAL RESEARCH, priority 2022, published 2026)
